Peptide text beside a SMILES is read from it. * marks the point of attachment. Cbz = O=C(OCc1ccccc1)*; CH2F = FC*
Experiments:
[1] = system: RIPK3 necrosome complex (RIPK1, caspase-8); assay: Anti-FLAG immunoprecipitation of necrosome complexes; format: cell-based, murine; conditions: RIPK3-1xFv, AP1 30 minutes; zVAD 50 μM, Nec1 30 μM
Experimental: Immunoprecipitation of necrosome complexes were carried out using rabbit anti-FLAG antibodies, and TruBlot IP reagents (Rockland Immunochemicals) to eliminate non-specific signals from immunoglobulin heavy and light chains. Briefly, cell lines were treated as indicated and lysed in NP40 buffer (30 mM Tris, 150 mM NaCl, and 1% NP40) supplemented with protease inhibitors. Twenty micrograms of each sample were reserved for “input,” while 500 μg of total protein from each sample were immunoprecipitated with 0.5 μg antibody conjugated to 30 μL TruBlot anti-Rabbit IgG beads Immunocomplexes were washed 4 times in NP40 buffer, eluted by boiling, then run on western blot. Western blots were analyzed using standard primary antibodies, but TruBlot anti-Rabbit and anti-Mouse HRP-conjugated 14 secondary antibodies were used. A standard anti-Rat-HRP secondary was used to detect caspase-8.

[2] = system: cells expressing RIPK1-FRB/RIPK3-FKBP; assay: Heterodimerizer-induced RIPK1/RIPK3 necrosis, annexin V-FITC; format: cell-based; conditions: data not shown
Experimental: FIG. 6 provides a schematic for inducible RIPK-necrosis. Two systems for inducible RIPK-necrosis. […] Cell death in cells expressing RIPK1-FRB/RIPK3-FKBP and treated with heterodimerizer, and death was detected with annexin V-FITC. Death was inhibited by necrostatin-1 (not shown) (FIG. 6B). Cells expressing RIPK3ΔC-FKBPx2, treated with homodimerizer (1-100 nM); death was detected at 3 hrs by PI uptake. No effect of zVAD-fmk or necrostatin was observed (FIG. 6B).
An inducible dimer system has been employed to trigger homodimerization of caspase-8 in cells (27). The data provided herein support methods to induce RIPK-dependent necrosis by related approaches (FIG. 6A). Heterodimerization of RIPK1 and RIPK3 results in necrosis (see FIG. 6B) which is enhanced by inhibition of caspases and blocked by inhibition of RIPK1 (with nec1, data not shown). In contrast, truncated RIPK3 (lacking the RHIM domain for interaction with RIPK1) can only be oligomerized when FKBP domains (e.g., for example, two domains) that allow multiple monomers to be brought together by the dimerizing agent. Addition of the homodimerization agent to cells expressing this construct induces extremely rapid necrosis that that depends on the kinase activity of RIPK3, but is not affected by inhibition of caspases or nec1 treatment (FIG. 6C).

[3] = system: NIH-3T3 cells expressing RIPK3-2xFv; assay: AP1-induced RIPK3 oligomerization cell death, IncuCyte imaging; format: cell-based, murine; conditions: AP1; zVAD 50 μM, Nec1 30 μM
Description: (§1) Consequently, two Fv domains were attached to the C-terminus of RIPK3, creating a RIPK3-2xFv construct, with the goal of promoting AP1-induced crosslinking and oligomerization independent of the RHIM domain. See, FIG. 12A. […] Compare, FIGS. 16A and 15A, respectively. […] Cells expressing this RHIM-deficient RIPK3^ΔC-2xFv construct were nonresponsive to TNF+zVAD, previously reported to be dependent on RIPK1 RHIM/RIPK3 RHIM interactions. See, FIG. 13G. […] See, FIG. 16C and FIG. 16D, respectively. […] See, FIG. 16E. […] See, FIG. 16F.
(§2) Cell death assays were carried out using a 2-color IncuCyte Zoom in-incubator imaging system (Essen Biosciences.) Briefly, this system allows fully automated imaging of cells at set intervals in phase contrast as well as both red and green fluorescent channels. Cell death assays were carried out by treating cells with death-inducing compounds in 24 well tissue culture vessels (100,000 cells/well), in the presence of 100 nM of the cell-impermeable DNA binding fluorescent dyes Sytox Green (Life Technologies 57020) or Yoyo-3 (Y3606), which are excluded from healthy cells but rapidly enter dying cells upon membrane permeabilization, in a manner analogous to propidium iodide.
(§3) Resulting images were analyzed using the software package supplied with the IncuCyte imager, which allows precise analysis of the number of Sytox Green or Yoyo-3 positive cells present in each image. For each experiment, a minimum of three separate wells were treated with each experimental condition, and a minimum of 4 image fields were assessed per well. Percent cell death was calculated by treating a minimum of three distinct wells in each experiment with 100 nM of the cell permeable fluorescent dye Syto Green (S7559), which allows quantification of the total number of cells present in each field. Dead cell events acquired via Sytox Green or Yoyo-3 staining were divided by this total cell number to yield percent cell death at each timepoint. Error bars represent standard deviation from the mean of a minimum of three independent wells. Each result depicted is representative of at least 4 distinct experiments, each of which contained at least 3 technical replicates.

[4] = system: NIH-3T3 cells expressing RIPK3^ΔC-2xFv; assay: as above; format: cell-based, murine; conditions: zVAD 50 μM, Nec1 30 μM
Description: as §1, §2, §3

[5] = system: NIH-3T3 cells stably expressing DD-RIPK3; assay: Cell death of DD-RIPK3 cells, IncuCyte bioimager; format: cell-based, murine; conditions: 1 μM Shield drug
Description: Chimeric proteins composed of RIPK3 fused to the destabilization domain (DD)(31a) were created via recombinant PCR, to produce a fragment composed of an N-terminal FLAG tag followed by the destabilization domain, then full-length murine RIPK3 or RIPK3^K51A. These constructs were cloned into the pRRL lentiviral vector downstream of an MND promoter, and upstream of a T2A-GFP-T2A-Puromycin resistance cassette. Thus, cells transduced with these vectors produce FLAG-DD-RIPK3, GFP, and the puromycin resistance marker as separate proteins from a single mRNA, and both DD-RIPK3 and GFP carry a C terminal 2A epitope. These constructs were expressed in NIH-3T3 cells via standard helper12 dependent lentiviral transduction, and resulting cells were selected in 2 μg/ml puromycin. […]
Resulting images were analyzed using the software package supplied with the IncuCyte imager, which allows precise analysis of the number of Sytox Green or Yoyo-3 positive cells present in each image. For each experiment, a minimum of three separate wells were treated with each experimental condition, and a minimum of 4 image fields were assessed per well. Percent cell death was calculated by treating a minimum of three distinct wells in each experiment with 100 nM of the cell permeable fluorescent dye Syto Green (S7559), which allows quantification of the total number of cells present in each field. […]

[6] = system: EμMyc+p53^ΔPP/wt tumor-bearing animals; format: in vivo, mice; conditions: 200 μg zVAD-fmk with 10 μg anti-CD95, intravenously once/day for 5 days
Experimental: EμMyc+p53^ΔPP/wt tumor-bearing animals were injected intravenously once/day for 5 days starting at P35 with 10 μg of the antagonist anti-CD95 Jot antibody and 200 μg of zVAD-fmk or vehicle control. Tumor size was monitored by ultrasound of the thymus, where volume was calculated from 3D reconstructions of the scanned tumors.
In a pilot experiment, mice with detectable tumors at 5 weeks (determined by ultrasound, and characteristic of this lymphoma) were given a short course (5 days) of agonistic anti-CD95 (Jo2) and zVAD-fmk (FIG. 11). […] Controls using zVAD-fmk alone are also included.

Structure (SMILES) | effect of inhibitor on association of RIPK1 and caspase-8 with the RIPK3 complex [1] | effect on heterodimerizer-induced death [2] | effect on heterodimerizer-induced death ([2]; listed as nec1) | effect of inhibitor on magnitude or kinetics of cell death [3] | effect of inhibitor on magnitude or kinetics of cell death [4] | effect of Nec1 on cell death after RIPK1 siRNA-mediated knockdown ([5]; 30 μM Nec1, RIPK1 siRNA) | effect on cell death triggered by RIPK3 accumulation ([5]; no exogenous TNF, TNFR-Fc 200 ng/ml, Nec1 30 μM) | protection from the lethal effects of anti-CD95 in vivo [6]
CN1C(=O)C(Cc2c[nH]c3ccccc23)NC1=S (centres unmarked) [necrostatin-1, Necrostatin-1] | eliminated formation of stable RIPK1- and caspase-8 containing complexes | inhibited | blocked | did not alter magnitude or kinetics of cell death | did not alter magnitude or kinetics of cell death | eliminated | decreased cell death | –
COC(=O)C[C@H](NC(=O)[C@H](C)NC(=O)[C@@H](NC(=O)OCc1ccccc1)C(C)C)C(=O)CF [zVAD] (Cbz-Val-Ala-Asp(OMe)-CH2F) | increased association of these proteins | – | – | did not alter magnitude or kinetics of cell death | did not alter magnitude or kinetics of cell death | – | – | completely protected
